This note sets out measurements from ChEMBL document CHEMBL2203030, “Synthesis, characterization, antidepressant and antioxidant activity of novel piperamides bearing piperidine and piperazine analogues” (Bioorg Med Chem Lett, 2012).

The IC50 is the concentration that gives 50% inhibition. By MIC is commonly meant the least concentration at which growth counts as inhibited. High values mean a need for much substance, low ones inhibition by little substance.

In brackets after ≈: the same amount, converted by molar mass.

Series [1] addresses T1, Amine oxidase [flavin-containing] B (Mus musculus, UniProt Q8BW75).
T1 sequence (Q8BW75 whole entry): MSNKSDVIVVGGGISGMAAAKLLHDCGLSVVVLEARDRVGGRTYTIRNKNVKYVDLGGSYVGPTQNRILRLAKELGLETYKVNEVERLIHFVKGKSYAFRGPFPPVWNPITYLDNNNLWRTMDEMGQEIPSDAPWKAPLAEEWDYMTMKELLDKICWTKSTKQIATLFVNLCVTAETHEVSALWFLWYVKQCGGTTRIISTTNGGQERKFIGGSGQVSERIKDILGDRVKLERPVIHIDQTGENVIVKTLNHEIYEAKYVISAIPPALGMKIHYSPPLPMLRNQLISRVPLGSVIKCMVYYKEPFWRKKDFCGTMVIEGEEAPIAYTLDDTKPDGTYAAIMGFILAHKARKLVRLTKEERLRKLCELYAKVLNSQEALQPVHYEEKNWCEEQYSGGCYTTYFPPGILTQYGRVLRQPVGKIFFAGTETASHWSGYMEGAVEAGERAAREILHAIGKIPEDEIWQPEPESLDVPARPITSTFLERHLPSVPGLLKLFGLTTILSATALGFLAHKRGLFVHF
Description: Inhibition of MAOB in mouse brain mitochondrial fraction assessed as enzyme activity per mg of protein using beta-PEA substrate incubated for 20 mins by UV-spectrophotometry. It counts as tissue-based.

In series [2] the target is T2, Amine oxidase [flavin-containing] A (Mus musculus, UniProt Q64133).
T2 sequence (Q64133 whole entry): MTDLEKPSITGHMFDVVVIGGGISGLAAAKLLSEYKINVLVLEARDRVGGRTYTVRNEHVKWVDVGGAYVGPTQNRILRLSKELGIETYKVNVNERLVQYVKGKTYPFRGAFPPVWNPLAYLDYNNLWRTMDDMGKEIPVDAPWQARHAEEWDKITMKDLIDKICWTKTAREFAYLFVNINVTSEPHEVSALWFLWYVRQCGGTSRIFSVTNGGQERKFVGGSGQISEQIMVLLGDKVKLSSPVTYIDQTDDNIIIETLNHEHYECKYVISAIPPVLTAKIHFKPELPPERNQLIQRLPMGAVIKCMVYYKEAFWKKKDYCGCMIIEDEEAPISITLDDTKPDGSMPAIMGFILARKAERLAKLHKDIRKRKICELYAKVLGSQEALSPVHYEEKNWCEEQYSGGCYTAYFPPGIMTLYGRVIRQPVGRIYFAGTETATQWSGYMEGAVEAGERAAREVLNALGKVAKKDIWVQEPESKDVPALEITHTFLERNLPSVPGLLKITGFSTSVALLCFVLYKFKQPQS
Briefly: Inhibition of MAOA in mouse brain mitochondrial fraction assessed as enzyme activity per mg of protein using 5-HT substrate incubated for 20 mins by UV-spectrophotometry. It counts as tissue-based.

The test system of series [3] is Mus musculus. Briefly: Antidepressant activity in Swiss albino mouse assessed as mean immobility time measured during 6 mins period at 20 mg/kg, po administered 30 mins before test by tail suspension test (reference value: 185.7 +/- 5.33 secs). It counts as functional.
In series [4] the test system is Mus musculus. Briefly: Antidepressant activity in Swiss albino mouse assessed as mean immobility time measured during last 4 mins of single 6 mins test session at 20 mg/kg, po by forced swim test (reference value: 75.33 +/- 3.35 secs). It counts as functional.
Series [5] is described as follows: Antioxidant activity assessed as superoxide scavenging activity using xanthine-xanthine oxidase system by NBT dye reduction based assay. It counts as functional.
The subject of series [6] is Radical scavenging activity. Description: Antioxidant activity assessed as DPPH free radical scavenging activity by spectrophotometry. It counts as functional. A general note: The DPPH test is a chemical assay of radical scavenging.
The test system of series [7] is Aspergillus flavus. Description: Antimicrobial activity against Aspergillus flavus NCIM 524 by broth dilution method. It counts as functional. Background: Broth dilution looks for growth in wells or tubes with falling amounts of substance.
Series [8] concerns Aspergillus flavus. Description: Antimicrobial activity against Aspergillus flavus NCIM 524 at 100 ug/mL incubated for 48 hrs by agar disc diffusion method. The conditions noted are these: NCIM 524, 48 h, read-out: IZ. It counts as functional. In general terms: In agar diffusion tests the substance spreads into inoculated agar from a disc or well.
The test system of series [9] is Candida albicans. Description: Antimicrobial activity against Candida albicans NCIM 3471 by broth dilution method. It counts as functional.
For series [10], the system named is Candida albicans. Description: Antimicrobial activity against Candida albicans NCIM 3471 at 100 ug/mL incubated for 48 hrs by agar disc diffusion method. It counts as functional. The conditions noted are these: NCIM 3471, 48 h, read-out: IZ.
Series [11] deals with Pseudomonas aeruginosa. Description: Antimicrobial activity against Pseudomonas aeruginosa NCIM 5029 by broth dilution method. It counts as functional.
In series [12] the test system is Pseudomonas aeruginosa. Briefly: Antimicrobial activity against Pseudomonas aeruginosa NCIM 5029 at 100 ug/mL incubated for 24 hrs by agar disc diffusion method. It counts as functional. The conditions noted are these: NCIM 5029, 24 h, read-out: IZ.
Series [13] relates to Escherichia coli. Briefly: Antimicrobial activity against Escherichia coli NCIM 2574 by broth dilution method. It counts as functional.
For series [14], the system named is Escherichia coli. Briefly: Antimicrobial activity against Escherichia coli NCIM 2574 at 100 ug/mL incubated for 24 hrs by agar disc diffusion method. It counts as functional. The conditions noted are these: NCIM 2574, 24 h, read-out: IZ.
The test system of series [15] is Bacillus subtilis. Briefly: Antimicrobial activity against Bacillus subtilis NCIM 2999 by broth dilution method. It counts as functional.
In series [16] the test system is Staphylococcus aureus. Description: Antimicrobial activity against Staphylococcus aureus NCIM 5021 by broth dilution method. It counts as functional.
The subject of series [17] is Staphylococcus aureus. Description: Antimicrobial activity against Staphylococcus aureus NCIM 5021 at 100 ug/mL incubated for 24 hrs by agar disc diffusion method. It counts as functional. The conditions noted are these: NCIM 5021, 24 h, read-out: IZ.
Series [18] deals with Bacillus subtilis. Description: Antimicrobial activity against Bacillus subtilis NCIM 2999 at 100 ug/mL incubated for 24 hrs by agar disc diffusion method. It counts as functional. The conditions noted are these: NCIM 2999, 24 h, read-out: IZ.

For `C#CCN(C)CCCOc1ccc(Cl)cc1Cl` [CLORGILINE], the results for the Activity in [1] and in [2] were 18.16 nmol and 17.05 nmol, respectively.

As to `COc1cc(/C=C/C(=O)N2C(C)CCCC2C)cc2c1OCO2` (stereo not drawn), the figures for the Time in [3] and in [4] were 77.33 s and 43.33 s, respectively. Further, the IC50 came to 15.8 µg/mL (≈ 49.8 µM) in series [5] and 13.8 µg/mL (≈ 43.5 µM) in series [6]. Besides, the MIC in [7] came out at 25 µg/mL (≈ 78.8 µM); in series [9], 25 µg/mL (≈ 78.8 µM); in [11], 30 µg/mL (≈ 94.5 µM); in [13], 50 µg/mL (≈ 158 µM); in series [15] it was 30 µg/mL (≈ 94.5 µM); in series [16], 28 µg/mL (≈ 88.2 µM). The zone of inhibition at 100 µg/mL in series [8] came out at 15 mm; in [10], 12 mm; in series [12] it was 11 mm; in series [14], 10 mm; in [17], 11 mm; in series [18], 12 mm.

In the case of `COc1cc(/C=C/C(=O)N2CCN(c3ccccn3)CC2)cc2c1OCO2`, the Time in [3] stood at 148.5 s; in series [4], 67.6 s. The values for the IC50 in series [5] and in series [6] were 18.5 µg/mL (≈ 50.4 µM) and 19.3 µg/mL (≈ 52.5 µM), respectively. In addition, the MIC stood at 15 µg/mL (≈ 40.8 µM) in [7]; 14 µg/mL (≈ 38.1 µM) in series [9]; 20 µg/mL (≈ 54.4 µM) in series [11]; 22 µg/mL (≈ 59.9 µM) in series [13]; 15.5 µg/mL (≈ 42.2 µM) in [15]; 15.2 µg/mL (≈ 41.4 µM) in [16]. Also, the zone of inhibition at 100 µg/mL in [8] was found to be 10.9 mm; in [10], 11.4 mm; in series [12] it was 17 mm; in series [14] it was 11 mm; in series [17], 14 mm; in [18], 12 mm.

As to `COc1cc(/C=C/C(=O)N2CCNCC2)cc2c1OCO2`, the figures for the Time in [3] and in series [4] were 178 s and 71 s, respectively. The IC50 in series [5] amounted to 38.4 µg/mL (≈ 132 µM); in [6], 20.1 µg/mL (≈ 69.2 µM). Moreover, the MIC in series [7] turned out to be 15 µg/mL (≈ 51.7 µM); in series [9], 25 µg/mL (≈ 86.1 µM); in series [11], 25 µg/mL (≈ 86.1 µM); in series [13], 20 µg/mL (≈ 68.9 µM); in series [15], 50 µg/mL (≈ 172 µM); in [16], 30 µg/mL (≈ 103 µM). Moreover, the zone of inhibition at 100 µg/mL in [8] turned out to be 14 mm; in series [10], 10 mm; in [12], 13 mm; in series [14] it was 11 mm; in series [17], 14 mm; in series [18] it was 10 mm.

Consider `COc1cc(/C=C/C(=O)N2CCC(O)CC2)cc2c1OCO2`, for which the values for the Activity in series [1] and in series [2] were 15.72 nmol and 14.46 nmol, respectively. In addition, the Time in series [3] amounted to 76.18 s; in series [4] it was 30.8 s. Also, the figures for the IC50 in series [5] and in [6] were 12.8 µg/mL (≈ 41.9 µM) and 8.3 µg/mL (≈ 27.2 µM), respectively. Moreover, the MIC in [7] is 90 µg/mL (≈ 295 µM); in [9] it was 100 µg/mL (≈ 328 µM); in [11], greater than 100 µg/mL; in series [13], greater than 100 µg/mL; in [15], 50 µg/mL (≈ 164 µM); in [16], 50 µg/mL (≈ 164 µM). Moreover, the zone of inhibition at 100 µg/mL amounted to 10.2 mm in [8]; 14 mm in [10]; 11 mm in series [12]; 11 mm in series [14]; 10 mm in series [17]; 7 mm in series [18].
